In patent publication US8362070B2, “Application of puerarin in the preparation of P2X3 mediated drugs for pain/nervous system diseases” (Nanchang University, priority 2009, dated 2013):

Columns and labels:
P2X3 mRNA = assay: In situ hybridization of P2X3 mRNA in dorsal root ganglion of burn rats; format: in vivo, rat; settings: n=10
Description: SD rats (their body weights were 200±20 g) were randomly divided into the group I (sham back burn), the group II (Puerarin, intraperitoneal injection), the group III (superficial second degree back burn), the group IV (superficial second degree back burn+puerarin), the group V (control) and the group VI (superficial second degree back burn+Indocin). The rats in the group IV (superficial second degree back burn+puerarin) were subjected to intraperitoneal injection of Puerarin (100 mg/kg) everyday for continuous three days 30 minutes before and after burn. The rats in the group VI (superficial second degree back burn+Indocin) were subjected to intraperitoneal injection of idomethine (4 mg/kg/d) everyday for continuous three days 30 minutes before burn and after burn. Results of in situ hybridization were subjected to analysis by using Hmias-2000 high-resolution color medical image analysis system for the detection of P2X3 receptor expression in dorsal root ganglion (DRG) in burn position of rats.

P2X3 receptor = biological target: T1, P2X3 receptor (Rattus norvegicus, UniProt P49654); assay: Whole-cell patch clamp of ATP or α,β-meATP activated current in DRG neurons of CCI rats; format: cell-based; settings: for DRG neurons sensitive to exogenous ATP: ATP 1-1000 μmol/L; for α,β-meATP-activated electric current in DRG neurons: α,β-meATP 10 μmol/L
T1 construct: The method for neuron sample isolated from DRG of rats was briefly described as below; endogenous in cells; host or cells: acutely dissociated L4/L5 DRG neurons of SD rats
T1 sequence (P49654 1-397): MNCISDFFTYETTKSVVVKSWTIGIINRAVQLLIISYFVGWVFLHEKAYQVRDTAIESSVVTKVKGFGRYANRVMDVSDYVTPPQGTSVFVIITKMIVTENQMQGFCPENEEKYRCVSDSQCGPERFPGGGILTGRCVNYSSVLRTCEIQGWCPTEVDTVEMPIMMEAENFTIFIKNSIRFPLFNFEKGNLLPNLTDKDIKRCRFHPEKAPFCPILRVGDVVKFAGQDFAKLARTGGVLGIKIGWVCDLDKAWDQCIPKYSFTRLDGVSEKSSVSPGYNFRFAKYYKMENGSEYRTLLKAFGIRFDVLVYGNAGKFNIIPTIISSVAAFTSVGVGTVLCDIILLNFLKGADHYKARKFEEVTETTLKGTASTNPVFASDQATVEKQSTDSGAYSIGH
From the text: The method for neuron sample isolated from DRG of rats was briefly described as below: the rats were knocked down and their skin in the back was cut open rapidly after decollation. The ribs that were connected to the spinal column at both sides were cut apart and the thoracolumbar spine was taken out and cut in half through the middle of the spine. The samples were kept in O2 saturated DMEM solution (Dubecco's Modified Eagle's medium), pH 7.40, and the osmotic pressure of this solution was 340 mOsm/kg. The sections L4 and L5 of nerve ganglion and connected nerve roots (dorsal nerve roots and ventral roots) as well as the spinal nerves were taken out inside the open vertebral canal, the connected nerves and adjacent connective tissue capsule were carefully removed by using fine corneal scissors and hairspring tweezer under an anatomical microscope, and the cleaned DRG should be cut into small pieces as far as possible and transferred to a culture flask, trypsin (type III, sigma) 0.5 g/L and collagenase (type IA, sigma) 1.0 g/L was then added, and the culture flask was incubated in a constant temperature shaking water bath (35 °C, 80 times/min) for 20-30 minutes, then proper amount of Soya beam trypsin inhibitor (type […]-s, Sigma) was added to stop the enzymatic digestion. The DRG cells after the above mentioned enzymatic and mechanical isolation were transferred to 35 mm culture dishes, and then they were kept still on the object stage of an inverted microscope for solution change for 30 minutes, subsequently the whole-cell patch clamp technique was utilized to record the effects of puerarin on ATP or α,β-meATP activated electric current. • (1) Carefully examining the connection and original setting of equipments in the experimental system. • (2) Turning on the power switch. • (3) Electrode installation: connecting the reference electrode, filling the glass electrode and then installing it on the electrode clamp holder. Notice: the electrode should not be over-filled; contacting the shielding can with hands before installing the electrodes in order to release the static electricity on the body. • (4) Phase boundary potential compensation and electrode resistance determination: filling solution in the microelectrode under the “searching” mode, adjusting the phase boundary potential compensation and measuring electrode resistance according to the responsive amplitude of electric current that was induced by pulsed voltage square wave. • (5) Cell sealing: adjusting the micro-operator to get the tip of the microelectrode close to the surface of the cell and a negative pressure is produced in the micro-electrode and thus the Giga-Ohm seal was formed. • (6) Rapid electric capacity compensation: adjusting the rapid electric capacity compensation and making the output signal free of ingredients of rapid electric capacitive current. • (7) Absorbing the cell membrane until it was disrupted: the working mode was switched to “forcipressure”. The membrane was absorbed until it was disrupted after the high resistance sealing was formed between the electrode and the cell (1-10 GΩ). The holding potential (H.P) was kept at −60 mV, and low pass membrane current was used (1 kHz, −3 dB). • (8) Slow capacitive compensation: adjusting the slow capacitive compensation and making the output signal free of ingredients of slow electric capacitive current. Tandem resistance compensation: adjusting the tandem resistance compensation until no shock was produced. The equipment for record of patch clamp was CEZ-2400 type patch clamp amplifier (Nihon-Kohden, Japan). The membrane was further absorbed until it was disrupted after the high resistance formed between the electrode and the cell membrane (1˜10 GΩ), and the capacitance and the tandem resistance compensation were adjusted. The holding potential (HP) was kept at −60 mV, low pass membrane current was used (1 kHz, −3 dB). The experimental results were traced by using the two-way recorder (LMS-2B, Chengdu). […]

P2X3 protein = P2X3 protein expression in dorsal root ganglion of burn rats (band density normalized to β-actin); format: in vivo, rat; settings: n=3
Description: SD rats (their body weights were between 200±20 g) were randomly divided into the group I (sham back burn), the group II (Puerarin, intraperitoneal injection), the group III (superficial second degree back burn), the group IV (superficial second degree back burn+puerarin), the group V (control) and the group VI (superficial second degree back burn+Indocin). The rats in the group IV (superficial second degree back burn+puerarin) were subjected to intraperitoneal injection of puerarin (100 mg/kg) everyday for continuous three days 30 minutes before burn and after burn. The rats in the group VI (superficial second degree back burn+Indocin) were subjected to intraperitoneal injection of idomethine (4 mg/kg/d) everyday for continuous three days 30 minutes before burn and after burn. Results: the optical density scanned values for the interested bands that were detected on X-ray film were read by using Alpha Imager 2200 image analysis software, and the scanned values of β-actin for different groups were used to normalize the expression level of P2X3 in corresponding groups.

[1] = superficial second degree back burn + drug (puerarin 100 mg/kg i.p., idomethine 4 mg/kg/d i.p., three days), burn 1.15±0.04, control 0.99±0.02
[2] = superficial second degree back burn + drug (puerarin 100 mg/kg i.p., idomethine 4 mg/kg/d i.p., three days), burn 1.23±0.06, control 0.98±0.02

| SMILES | average optical density (P2X3 mRNA, in situ hybridization, DRG) (P2X3 mRNA; [1]) | ATP-activated electric current in DRG neurons in comparison to CCI group (P2X3 receptor; CCI rats + Indocin, p<0.05) | DRG neurons sensitive to exogenous ATP (P2X3 receptor; CCI rats + drug) [%] | α,β-meATP-activated electric current in DRG neurons (P2X3 receptor; CCI rats + drug) | protein expression level of P2X3 (after normalization with corresponding β-actin) (P2X3 protein; [2]) | average optical density (P2X3 mRNA, in situ hybridization, DRG) (P2X3 mRNA; puerarin alone i.p., no burn) | ATP-activated electric current in DRG neurons in comparison to the idomethine treatment group (P2X3 receptor; CCI rats + puerarin, p<0.05) | ATP-activated electric current in DRG neurons, difference from groups I, II and V (P2X3 receptor; CCI rats + puerarin, p>0.05) | DRG neurons sensitive to exogenous ATP (P2X3 receptor; puerarin alone, no CCI) [%] | α,β-meATP-activated electric current in DRG neurons (P2X3 receptor; puerarin alone, no CCI) | protein expression level of P2X3 (after normalization with corresponding β-actin) (P2X3 protein; puerarin alone i.p., no burn) |
| --- | --- | --- | --- | --- | --- | --- | --- | --- | --- | --- | --- |
| COc1ccc2c(c1)c(CC(=O)O)c(C)n2C(=O)c1ccc(Cl)cc1 [Indocin, Indometacin] | 1.06±0.05 | decreased | 89.7 | extremely low inward current | 1.14±0.03 | – | – | – | – | – | – |
| O=c1c(-c2ccc(O)cc2)coc2c([C@@H]3O[C@H](CO)[C@@H](O)[C@H](O)[C@H]3O)c(O)ccc12 [puerarin] | 1.01±0.03 | – | 87.5 | extremely low inward current | 0.93±0.02 | 0.97±0.01 | lower | not significant | 89.2 | extremely low inward current | 0.97±0.02 |
